Laboratory results taken from patent US9364488B2, “Myelin regeneration with androgens” (priority 2011, dated 2016).
Entries after “also recorded” stand apart in the source; their conditions may differ.

Key:
[1] = MENT level in plasma of castrated male mice with subcutaneous silastic implants (radioimmunoassay); assay type: in vivo; details: mean of 8 samples, SD 0.87
Description: In additional experiments, the level of MENT which was induced in the plasma of castrated male mice based on subcutaneous silastic implants, as determined by radioimmunoassay, and which included a myelin response, was as follows: […]

[2] = system: corpus callosum axons of cuprizone-intoxicated mice; assay: Remyelination of corpus callosum after demyelination induced by cuprizone intoxication; assay type: in vivo; details: for remyelination of corpus callosum (myelin basic protein staining, oligodendrocytes): 6 weeks of treatment with subcutaneous silastic implants after 12 weeks of cuprizone intoxication; for promyelinating effect in vivo after demyelination induced by cuprizone intoxication (summary statement): male and female animals; for remyelinating effect in testicular feminized mice: mice devoid of functional androgen receptors due to a gene mutation
Description: In Figures b, d and f, are shown representative images of immunostaining of mouse corpus callosum with anti-MBP antibody.

[3] = system: organotypic cultures of cerebellar slices
[4] = system: oligodendrocyte progenitors; assay: Proliferation and maturation of oligodendrocyte progenitors
[5] = system: activated microglial cells in corpus callosum; assay: Microglial responses and astrogliosis after cuprizone intoxication; details: 9 weeks of treatment after 12 weeks of cuprizone intoxication, castrated males
[6] = biological target: estrogen receptor beta (ERβ) (Homo sapiens, UniProt Q92731); details: reference 16; cited from earlier work
Chain of estrogen receptor beta (ERβ) (Q92731 whole entry, species assumed): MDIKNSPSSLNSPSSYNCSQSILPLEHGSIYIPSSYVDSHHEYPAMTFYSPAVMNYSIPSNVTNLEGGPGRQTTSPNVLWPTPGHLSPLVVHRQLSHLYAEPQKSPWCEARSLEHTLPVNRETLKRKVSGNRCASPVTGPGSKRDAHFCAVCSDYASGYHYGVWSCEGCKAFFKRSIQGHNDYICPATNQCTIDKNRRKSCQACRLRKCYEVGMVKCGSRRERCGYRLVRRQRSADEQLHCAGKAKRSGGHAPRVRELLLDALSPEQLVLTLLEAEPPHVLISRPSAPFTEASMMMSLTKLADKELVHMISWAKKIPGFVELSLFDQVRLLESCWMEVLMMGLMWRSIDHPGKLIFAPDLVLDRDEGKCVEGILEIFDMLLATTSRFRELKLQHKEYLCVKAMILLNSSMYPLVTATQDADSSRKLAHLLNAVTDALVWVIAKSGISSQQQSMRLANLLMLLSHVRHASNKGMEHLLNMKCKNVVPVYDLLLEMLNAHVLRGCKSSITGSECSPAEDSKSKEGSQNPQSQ

[7] = mouse, in vivo, sc

C[C@@H]1CC2=CC(=O)CC[C@@H]2[C@H]2CC[C@]3(C)[C@@H](O)CC[C@H]3[C@@H]21 [MENT]
mean MENT plasma level [1]: 2.12 ng/mL
remyelination after lysolecithin-induced demyelination (mouse spinal cord): can be mimicked by MENT
remyelination of corpus callosum (myelin basic protein staining, oligodendrocytes) [2]: promotion of remyelination
promyelinating effect in vivo after demyelination induced by cuprizone intoxication (summary statement) [2]: also observed

C[C@]12CCC(=O)C[C@@H]1CC[C@@H]1[C@@H]2CC[C@]2(C)[C@@H](O)CC[C@@H]12 [5α-dihydrotestosterone]
remyelination of corpus callosum (myelin basic protein staining, oligodendrocytes) [2]: promotion of remyelination
promyelinating effect in vivo after demyelination induced by cuprizone intoxication (summary statement) [2]: mimicked by 5α-dihydrotestosterone

C[C@]12CC[C@H]3[C@@H](CCC4=CC(=O)CC[C@@]43C)[C@@H]1CC[C@@H]2O [Testosterone, testosterone]
promyelinating effect in vitro [3]: very strong promyelinating effect
proliferation and maturation of oligodendrocyte progenitors [4]: promotes the proliferation and maturation
number of activated microglial cells [5]: return to normal levels; also recorded: significantly decreased
remyelination of corpus callosum (myelin basic protein staining, oligodendrocytes) [2]: Strong remyelination
remyelinating effect in aromatase knockout mice ([2]; aromatase knockout mice, cuprizone model): loses its efficiency; also recorded: strongly reduced; also recorded: diminished
promyelinating effect in vivo after demyelination induced by cuprizone intoxication (summary statement) [2]: very strong promyelinating effect
remyelinating effect in testicular feminized mice [2]: not observed
remyelinating effect in testicular feminized mice ([2]; listed as testosterone): eliminated
replenishment of corpus callosum fibers by oligodendrocytes ([2]; silastic implants for 3 to 6 weeks after termination of 12 week cuprizone diet): replenished by oligodendrocytes forming new myelin sheaths

C[C@]12CC[C@H](O)C[C@@H]1CC[C@@H]1[C@@H]2CC[C@]2(C)[C@@H](O)CC[C@@H]12 [3βAdiol, 5α-androstane-3β,17β-diol]
binding to estrogen receptor beta (ERβ) [6]: strongly binds

C[C@]12CC[C@@H]3c4ccc(O)cc4CC[C@H]3[C@@H]1CC[C@@H]2O [Estradiol, estradiol]
Brain Level ([7]; male): 0.36 ± 0.04 ng/g
PLASMA LEVEL ([7]; male): 0.39 ± 0.07 ng/mL
levels produced in plasma and brain tissue by the implants [7]: high physiological levels
